23 compounds from patent US20250195530A1, “POLQ INHIBITORS” (ASTRAZENECA AB, priority 2022, published 2025) can be followed below.

Read-outs that look alike come from different tables or passages of the source.

The subject of experiment [1] is DLD-1 BRCA2−/− cells. Briefly: Homologous recombination synthetic lethal inhibition of proliferation, DLD-1 BRCA2-/- (Cell Titre Glo 3D). Format: cell-based. The conditions noted are these: Homo sapiens. An outline of the steps: (§1)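 Wild-type DLD-1 serves as the control for non-specific toxicity, and BRCA2-null DLD-1 as the homologous-recombination-deficient line. Both grew with compound from 10 μM down to 0.51 nM, re-dosed after 6 days. Luminescent ATP content (CellTiter-Glo 3D) was read after 7 or 12 days, respectively, to give IC50 values.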

Experiment [2] has as its system DLD-1 cells. Briefly: Inhibition of proliferation, DLD-1 BRCA2 wt control (Cell Titre Glo 3D). It counts as cell-based. The conditions noted are these: Homo sapiens. The gist of the method:
as §1

[3] abbreviates: DLD-1, 288 h, DLD-1 BRCA2−/− cells, 12 days, read-out: POLQ PD Prolif Lumin BRCA2 −/− mean pIC50 (converted).
Where [4] appears, read: DLD-1, 168 h, DLD-1 BRCA2 wt cells, 7 days, read-out: POLQ PD Prolif Lumin DLD1 mean pIC50 (converted).
The mark [5] stands for this setting: DLD-1, proliferation, luminescence, taken as DLD-1 BRCA2-/-, read-out: POLQ PD Prolif Lumin (converted).
Where [6] appears, read: DLD-1, proliferation, luminescence, second Prolif column (c6), taken as DLD-1 BRCA2 wt control, read-out: POLQ PD Prolif Lumin (converted).
The mark [7] stands for this setting: DLD-1, DLD-1 BRCA2 −/− cells, mean, read-out: POLQ PD Prolif Lumin BRCA2 −/− mean pIC50 (converted).
The mark [8] stands for this setting: DLD-1, DLD1 BRCA2 wt cells, mean, read-out: POLQ PD Prolif Lumin DLD1 mean PIC50 (converted).
[9] abbreviates: DLD-1, first proliferation column (c5), taken as DLD-1 BRCA2-/-, read-out: POLQ PD Prolif Lumin (converted).
Where [10] appears, read: DLD-1, second proliferation column (c6), taken as DLD-1 BRCA2 wt, read-out: POLQ PD Prolif Lumin (converted).
[11] abbreviates: DLD-1, first proliferation column (c5), DLD-1 BRCA2-/-, read-out: POLQ PD Prolif Lumin (converted).
[12] abbreviates: DLD-1, second proliferation column (c6), DLD-1 BRCA2 wt control, read-out: POLQ PD Prolif Lumin (converted).

Regarding `CC1(Oc2ncnc3c2nc(-c2ccc(OCCN4CCNC5(CC5)C4)cc2Cl)n3Cc2ccccc2)CC1` [Example R17, 8-(4-(2-(4,7-diazaspiro[2.5]octan-7-yl)ethoxy)-2-chlorophenyl)-9-benzyl-6-(1-methylcyclopropoxy)-9H-purine], the IC50 in experiment [1] (setting [3]) is 0.1 µM; in experiment [2] (setting [4]) it was 1 µM.

Turning to `CC1(Oc2ncnc3c2nc(-c2cccc(OCCCOCC(=O)O)c2Cl)n3Cc2cc(Cl)ccc2C#N)CC1` [Example U98, 2-(3-(2-chloro-3-(9-(5-chloro-2-cyanobenzyl)-6-(1-methylcyclopropoxy)-9H-purin-8-yl)phenoxy)propoxy)acetic acid], the IC50 in experiment [1] (DLD-1, DLD-1 BRCA2 −/−, mean, read-out: POLQ PD Prolif Lumin BRCA2 −/− mean pIC50 (converted)) was 0.0316 µM; in experiment [2] (DLD-1, DLD1 BRCA2 wt, mean, read-out: POLQ PD Prolif Lumin DLD1 mean pIC50 (converted)) it was > 10 µM.

With `Cc1ccc(F)c(Cn2c(-c3ccc(OCCC(C)C(=O)O)cc3Cl)nc3c(OC4(C)CC4)ncnc32)c1` (racemic) [Example T417, 4-(3-chloro-4-(9-(2-fluoro-5-methylbenzyl)-6-(1-methylcyclopropoxy)-9H-purin-8-yl)phenoxy)-2-methylbutanoic acid], the IC50 in experiment [1] (setting [5]) was 0.0501 µM; in experiment [2] (setting [6]) it was > 10 µM.

`CC1(Oc2ncnc3c2nc(-c2cccc(OCCC(=O)O)c2Cl)n3Cc2cccc(Cl)c2)CC1` [Example T89, 3-(2-chloro-3-(9-(3-chlorobenzyl)-6-(1-methylcyclopropoxy)-9H-purin-8-yl)phenoxy)propanoic acid]: the IC50 was 0.0398 µM in experiment [1] (setting [7]) and > 10 µM in experiment [2] (setting [8]).

On to `CC(C)Oc1nccc2c1nc(-c1ccc(OCCN3CCNCC3)cc1Cl)n2Cc1ccccc1` [Example 9, 1-benzyl-2-(2-chloro-4-(2-(piperazin-1-yl)ethoxy)phenyl)-4-isopropoxy-1H-imidazo[4,5-c]pyridine], for which the IC50 in experiment [1] (setting [3]) was 0.631 µM; in experiment [2] (setting [4]) it was 2.51 µM.

As to `CC(OCCOc1ccc(-c2nc3c(OC4(C)CC4)ncnc3n2Cc2cccc(Cl)c2)c(Cl)c1)C(=O)O` (racemic) [Example T305, rac-(R)-2-(2-(3-chloro-4-(9-(3-chlorobenzyl)-6-(1-methylcyclopropoxy)-9H-purin-8-yl)phenoxy)ethoxy)propanoic acid], the IC50 in experiment [1] (setting [9]) is 0.794 µM; in experiment [2] (setting [10]), > 10 µM.

Turning to `Cc1ccnc(Cn2c(-c3ccc(OCCCN(C)C)cc3Cl)nc3c(OC4(C)CC4)ncnc32)c1` [Example T385, 3-(3-chloro-4-(6-(1-methylcyclopropoxy)-9-((4-methylpyridin-2-yl)methyl)-9H-purin-8-yl)phenoxy)-N,N-dimethylpropan-1-amine], the results for the IC50 in experiment [1] (setting [9]) and in experiment [2] (setting [10]) were 0.0794 µM and > 10 µM, respectively.

As to `CC1(Oc2ncnc3c2nc(-c2ccc(OCCN4C[C@H]5C[C@@H]4CN5)cc2Cl)n3Cc2ccccc2)CC1` [Example R20, 8-(4-(2-((1R,4R)-2,5-diazabicyclo[2.2.1]heptan-2-yl)ethoxy)-2-chlorophenyl)-9-benzyl-6-(1-methylcyclopropoxy)-9H-purine], the IC50 in experiment [1] (setting [3]) is 0.2 µM; in experiment [2] (setting [4]) it was 2.51 µM.

For the compound `CC1(Oc2ncnc3c2nc(-c2ccc(OC4CC5(CNC5)C4)cc2Cl)n3Cc2ccccc2)CC1` [Example D34, 8-(4-((2-azaspiro[3.3]heptan-6-yl)oxy)-2-chlorophenyl)-9-benzyl-6-(1-methylcyclopropoxy)-9H-purine], the IC50 in experiment [1] (setting [3]) is 0.2 µM; in experiment [2] (setting [4]), 3.98 µM.

On to `Cc1ccnc(Cn2c(-c3ccc(OCCN4CCNC[C@@H]4C)cc3Cl)nc3c(OC4(C)CC4)ncnc32)c1` [Example T594, (S)-8-(2-chloro-4-(2-(2-methylpiperazin-1-yl)ethoxy)phenyl)-6-(1-methylcyclopropoxy)-9-((4-methylpyridin-2-yl)methyl)-9H-purine], for which the IC50 in experiment [1] (DLD-1, first proliferation column, DLD-1 BRCA2-/-, read-out: POLQ PD Prolif Lumin (converted)) was 0.501 µM; in experiment [2] (DLD-1, second proliferation column, DLD-1 BRCA2 wt control, read-out: POLQ PD Prolif Lumin (converted)), 2.51 µM.

For `CC1(Oc2ncnc3c2nc(-c2ccc(OCCN4CCC[C@H]4C(=O)O)cc2Cl)n3Cc2ccccc2)CC1` [Example H12, (2-(4-(9-benzyl-6-(1-methylcyclopropoxy)-9H-purin-8-yl)-3-chlorophenoxy)ethyl)-L-proline], the IC50 was 1 µM in experiment [1] (setting [3]) and > 10 µM in experiment [2] (setting [4]).

`Cc1ccnc(Cn2c(-c3ccc(N4CCCC4=O)cc3Cl)nc3c(OC4(C)CC4)ncnc32)c1` [Example T171, 1-(3-chloro-4-(6-(1-methylcyclopropoxy)-9-((4-methylpyridin-2-yl)methyl)-9H-purin-8-yl)phenyl)pyrrolidin-2-one]: the IC50 in experiment [1] (setting [11]) is 0.158 µM; in experiment [2] (setting [12]) it was > 10 µM.

For the compound `CC1(Oc2ncnc3c2nc(-c2ccc(OCCN4CCNCC4)cc2Cl)n3Cc2csc(Cl)n2)CC1` [Example L7, 2-chloro-4-((8-(2-chloro-4-(2-(piperazin-1-yl)ethoxy)phenyl)-6-(1-methylcyclopropoxy)-9H-purin-9-yl)methyl)thiazole], the figures for the IC50 in experiment [1] (setting [3]) and in experiment [2] (setting [4]) were 1.58 µM and > 10 µM, respectively.

Turning to `Cc1ccnc(Cn2c(-c3ccc(C(=O)N4CC5(CCN5)C4)cc3Cl)nc3c(OC4(C)CC4)ncnc32)c1` [Example T429, (3-chloro-4-(6-(1-methylcyclopropoxy)-9-((4-methylpyridin-2-yl)methyl)-9H-purin-8-yl)phenyl)(1,6-diazaspiro[3.3]heptan-6-yl)methanone], the IC50 in experiment [1] (setting [5]) is 1.26 µM; in experiment [2] (setting [6]), > 10 µM.

Take `CC1(Oc2ncnc3c2nc(-c2cccc(OCCN4CCNCC4)c2Cl)n3Cc2ccccc2)CC1` [Example D10, 9-benzyl-8-(2-chloro-3-(2-(piperazin-1-yl)ethoxy)phenyl)-6-(1-methylcyclopropoxy)-9H-purine]: the results for the IC50 in experiment [1] (setting [3]) and in experiment [2] (setting [4]) were 0.126 µM and 5.01 µM, respectively.

Regarding `CN1CCN(CCOc2ccc(-c3nc4c(OC5(C)CC5)ncnc4n3CCc3ccccc3)c(Cl)c2)CC1` [Example E4, 8-(2-chloro-4-(2-(4-methylpiperazin-1-yl)ethoxy)phenyl)-6-(1-methylcyclopropoxy)-9-phenethyl-9H-purine], the IC50 is 0.2 µM in experiment [1] (setting [3]) and 7.94 µM in experiment [2] (setting [4]).

As for `C[C@@H](Oc1cccc(-c2nc3c(OC4(C)CC4)ncnc3n2Cc2cccc(Cl)c2)c1Cl)C(=O)O` [Example T91, (R)-2-(2-chloro-3-(9-(3-chlorobenzyl)-6-(1-methylcyclopropoxy)-9H-purin-8-yl)phenoxy)propanoic acid], the IC50 in experiment [1] (setting [7]) and in experiment [2] (setting [8]) was > 10 µM in each case.

In the case of `Clc1cc(OCCN2CCNCC2)ccc1-c1nc2c(OC3CCC3)ncnc2n1Cc1ccccc1` [Example T506, 9-benzyl-8-(2-chloro-4-(2-(piperazin-1-yl)ethoxy)phenyl)-6-cyclobutoxy-9H-purine], the IC50 in experiment [1] (setting [11]) is 0.501 µM; in experiment [2] (setting [12]) it was 2 µM.

On to `Cc1ccnc(Cn2c(-c3ccc(NC(=O)OCCO)cc3Cl)nc3c(OC4(C)CC4)ncnc32)c1` [Example T123, 2-hydroxyethyl (3-chloro-4-(6-(1-methylcyclopropoxy)-9-((4-methylpyridin-2-yl)methyl)-9H-purin-8-yl)phenyl)carbamate], for which the IC50 in experiment [1] (setting [11]) is 0.2 µM; in experiment [2] (setting [12]), > 10 µM.

With `C[C@@H]1CN(CCOc2ccc(-c3nc4c(OC5(C)CC5)ncnc4n3Cc3ccccc3)c(Cl)c2)CCN1` [Example R6, (R)-9-benzyl-8-(2-chloro-4-(2-(3-methylpiperazin-1-yl)ethoxy)phenyl)-6-(1-methylcyclopropoxy)-9H-purine], the IC50 was 0.0631 µM in experiment [1] (setting [3]) and 3.16 µM in experiment [2] (setting [4]).

`Cc1cc(OCCCN2CCOCC2)ncc1-c1nc2c(OC3(C)CC3)ncnc2n1Cc1ccccc1` [Example G7, 4-(3-((5-(9-benzyl-6-(1-methylcyclopropoxy)-9H-purin-8-yl)-4-methylpyridin-2-yl)oxy)propyl)morpholine]: the figures for the IC50 in experiment [1] (setting [3]) and in experiment [2] (setting [4]) were 0.398 µM and > 10 µM, respectively.

With `Cc1cc(Cl)cc(Cn2c(-c3ccc(OCCN4CCNCC4)cc3Cl)nc3c(OC4(C)CC4)ncnc32)n1` [Example T527, 8-(2-chloro-4-(2-(piperazin-1-yl)ethoxy)phenyl)-9-((4-chloro-6-methylpyridin-2-yl)methyl)-6-(1-methylcyclopropoxy)-9H-purine], the IC50 in experiment [1] (setting [11]) is 0.398 µM; in experiment [2] (setting [12]), > 6.31 µM.

Turning to `CC(CCOc1ccc(-c2nc3c(OC4(C)CC4)ncnc3n2Cc2cccc(I)c2)c(Cl)c1)C(=O)O` (racemic) [Example T285, 4-(3-chloro-4-(9-(3-iodobenzyl)-6-(1-methylcyclopropoxy)-9H-purin-8-yl)phenoxy)-2-methylbutanoic acid], the IC50 was 0.251 µM in experiment [1] (DLD-1, DLD-1 BRCA2-/- proliferation, column head only partly shown, read-out: POLQ PD Prolif Lumin (converted)) and > 10 µM in experiment [2] (DLD-1, DLD-1 BRCA2 wt control proliferation, column head only partly shown, read-out: POLQ PD Prolif Lumin (converted)).
